How the values were obtained:
MDCK epithelial cells [1] = experiment: Confocal fluorescence microscopy, intracellular localization of inclusions; format: cell-based, Canine; details: 5 × 10^−6 M, 72 h, live cells
Experimental: Confocal Fluorescent Microscopy: A Nikon A1 confocal microscope was used for further investigation of live cells incubated with chiral pairs of compounds (T and U) and the parent compound, P. Since crystals or vesicular forms containing chemicals inside the cells incubated with Compound P, T, or U were fluorescent when viewed with the TRITC filter sets, intracellular distribution of these compounds in RAW264.7 or MDCK cells were visualized using a Nikon A1 confocal microscopy (Nikon Instruments Inc., Melville, NY) equipped with diode‐based lasers and a Nikon Apo 60×/1.4 NA oil immersion lens. Briefly, RAW264.7 macrophages or MDCK epithelial cells were seeded in the 8‐well Nunc Lab‐Tek II chambered (#1.5) cover glasses (Thermo Scientific, Pittsburgh, PA) at a density of 8 × 10^3 cells cm^−2 (RAW264.7 cells) or 1.5 × 10^4 cells cm^−2 (MDCK cells) and allowed to adhere overnight (37 °C, 5% CO2). Then, 5 × 10^−6 M of Compound “P” or the related isomers, “T” or “U” in DMEM with 5% FBS (300 μL) was added to the cells and the cells were incubated for 72 h (37 °C, 5% CO2). For live cell imaging, after the removal of media, cells were washed with HBSS buffer twice. Hoechst 33342 (Invitrogen, Carlsbad, CA) was used for staining cell nuclei and FM 1‐43 (Molecular Probes T35356, Invitrogen) for the plasma membrane. Cells were incubated with 300 μL of 1:1 (v/v) dye mixtures of 5 μg mL^−1 Hoechst 33342 and 7 × 10^−6 M FM 1‐43 in HBSS for 15 min at room temperature. Without fixative, the confocal imaging of the live cells was performed using lasers for DAPI (excitation/emission wavelength: 405 nm/450 ± 25 nm), FITC (488 nm/525 ± 25 nm), and TRITC (561 nm/596 ± 25 nm) channels. Z‐stack images of the cells were captured along the Z‐axis (interval, 1 μm) in three fluorescence channels and analyzed by using the Nikon NIS‐Elements 3.2 confocal software (Nikon Instruments Inc., Melville, NY). […]

RAW264.7 macrophages = experiment: Linear diattenuation anisotropy microscopy (LC-PolScope) of intracellular inclusions; format: cell-based; details: 72 h, compared with clofazimine
Experimental: (§1) The optical design was built on a Nikon Eclipse Ti microscope equipped with the liquid crystal universal compensator consisting of a linear polarizer and a pair of liquid crystal devices. The LC compensator was part of the transillumination path and was used to illuminate the specimen with monochromatic, linearly polarized light of varying polarization orientation. There was no polarization analyzer present in the imaging path. Quantitative intensity images were recorded by a charge‐coupled device camera and a desktop computer calculated the average transmittance, the differential transmittance and the polarization orientation leading to maximum transmittance for each optically resolved picture element (pixel). Acquisition and processing steps were controlled using OpenPolScope plugins for the open source imaging programs ImageJ and Micro‐Manager (MMStudio version 1.4.15). With the combination of hardware and software, polarized light images were acquired at high sensitivity and high spatial resolution for measuring linear diattenuation.
(§2) Linear Diattenuation Microscopy Data Acquisition and Analysis: After RAW264.7 macrophages or MDCK epithelial cells were incubated with the compound in the chambered cover glasses for 72 h, at the same time of performing transmitted microscopic examination, cell specimens were examined under linear diattenuation microscopy using the Nikon Eclipse Ti microscope with 40×/0.75 NA objective and monochromatic light of two different center wavelengths, 546 and 623 nm (passband 30 nm). In the OpenPolScope software, Pol‐Acquisition and Pol‐Analyzer plugins (version 2.0) were used to capture, process, and analyze the attenuation images. Before imaging the samples, the setup was calibrated using a specially prepared slide featuring four small pieces of linear polarization filters. The transmission axes of the filters were oriented in steps of 45° providing a means to calibrate the LC universal compensator settings. After the calibration, a sample slide was inserted and first a sequence of polarized light images of a clear, fully transmitting sample area was recorded, followed by an image sequence featuring the cells under investigation. The images of the clear area were used to determine instrument factors which were needed for computing the average and the polarization dependent loss in transmittance in cellular components visible in the second image.10
(§3) Linear diattenuation is a material property that can occur in materials such as crystals, in which the light absorbing molecules are arranged with a preferred orientation. The molecular alignment creates principal axes in the material denoting polarization directions for which light is maximally and minimally transmitted. Diattenuation is the difference between maximal (T max) and minimal (T min) transmittance, divided by their sum (Equation (1)): (1) Diattenuation=Tmax‐Tmin/Tmax+Tmin
(§4) To simultaneously measure the attenuation of many crystals with arbitrary orientations, we developed algorithms based on four specimen images, each recorded using light of a different polarization orientation: 0°, 45°, 90°, and 135°.10 The four raw images were used to calculate the average and differential transmittance and the orientation of maximum transmittance in every resolved image pixel. To isolate and analyze quantitative data of the objects (crystals), the anisotropy or maximum transmittance axis orientation image file opened in ImageJ was inverted (Ctrl + Shift + I) and thresholded using ImageJ's default automatic method (“Binary” → “Convert to Mask”). By using the ImageJ's algorithm, “Analyze Particles,” data of anisotropy or maximum transmittance axis orientation of objects in images could be obtained automatically. Diattenuation ratios were calculated by dividing anisotropy at 623 nm by that at 546 nm.

MDCK epithelial cells [2] = experiment: as above; format: cell-based, Canine; details: 72 h, compared with clofazimine
Experimental: as §1, §2, §3, §4

SMILES | Intracellular localization of compound (fluorescence, TRITC channel) (MDCK epithelial cells [1]) | Diattenuation anisotropy of intracellular inclusions (RAW264.7 macrophages) | Diattenuation anisotropy of intracellular inclusions (MDCK epithelial cells [2])
C[C@@H](CN=c1cc2n(-c3ccc(Cl)cc3)c3ccccc3nc-2cc1Nc1ccc(Cl)cc1)c1ccccc1 [Compound U] | localized at the periphery of the cell nuclei | even higher anisotropy | only in macrophages
Clc1ccc(Nc2cc3nc4ccccc4n(-c4ccc(Cl)cc4)c-3cc2=NCCc2ccccc2)cc1 [Compound P] | localized at the periphery of the cell nuclei | higher diattenuation anisotropy | higher diattenuation anisotropy

Source: article PMC4569013, “Massive Bioaccumulation and Self‐Assembly of Phenazine Compounds in Live Cells” (Advanced Science, 2015)
